Values of other authors as cited in paper PMC3433420 (PLoS ONE, 2012).
Where two headings read alike, the source gives them in different places.

Target: SH2 and PTB domains
Settings: ref Jones et al. 2006 / Kaushansky et al. Chem and Biol 2008, cited from earlier work
Text: Supplement pone.0044471.s022.xlsx, sheet "Most recent PM interactions" | column: Kd || Supplement pone.0044471.s022.xlsx, sheet "All original PM interactions" | column: Kd

For “PGGDpYAAMGACPd [ErbB3 pY1276, N-terminally rhodamine-labeled 13-mer phosphopeptide]”, the Kd (Protein ABL1, original PM interactions) is listed as 2000 nM, the Kd (Protein BCAR3, original PM interactions) is listed as 2000 nM and the Kd (Protein CRKL, original PM interactions) is listed as 440 nM. The Kd (Protein PIK3R3-C, original PM interactions) was 500 nM, the Kd (Protein PIK3R3-N, original PM interactions) was 500 nM and the Kd (Protein PTK6, original PM interactions) was 440 nM. For the same substance, the Kd (Protein SH2B2, original PM interactions) was 2000 nM, the Kd (Protein SHC1, original PM interactions) was 600 nM and the Kd (Protein SLA2, original PM interactions) was 2000 nM. For the same substance, the Kd (Protein SLA, original PM interactions) was 2000 nM, the Kd (Protein SYK-NC, original PM interactions) was 600 nM and the Kd (Protein TENC1, original PM interactions) was 2000 nM. For the same substance, the Kd (Protein VAV1, original PM interactions) was 2000 nM, the Kd (protein ABL2) was 150 nM and the Kd (protein CRK) was 260 nM. For the same substance, the Kd (protein CRKL) was 440 nM, the Kd (protein HCK) was 580 nM and the Kd (protein NCK1) was 210 nM. The Kd (protein NCK2) was 550 nM, the Kd (protein PIK3R1-N) was 530 nM and the Kd (protein PIK3R1-NC) was 55 nM. For the same substance, the Kd (protein PIK3R2-C) was 930 nM, the Kd (protein PIK3R2-N) was 120 nM and the Kd (protein PIK3R2-NC) was 80 nM. The Kd (protein PIK3R3-C) was 500 nM, the Kd (protein PIK3R3-N) was 500 nM and the Kd (protein PIK3R3-NC) was 14 nM. The Kd (protein PLCG1-C) was 690 nM, the Kd (protein PLCG1-NC) was 720 nM and the Kd (protein PTK6) was 440 nM. The Kd (protein RASA1-N) was 910 nM, the Kd (protein SHC1) was 600 nM and the Kd (protein SHC3) was 640 nM. The Kd (protein SYK-NC) was 600 nM, the Kd (protein TXK) was 1670 nM and the Kd (protein VAV2) was 300 nM. For the same substance, the Kd (protein VAV3) was 1540 nM and the Kd (protein ZAP70-C) was 1440 nM.
For “PKQEpYLNPVEENd [ErbB4 pY1162, N-terminally rhodamine-labeled 13-mer phosphopeptide]”, the Kd (protein ABL2, all original PM interactions) is given as 320 nM, the Kd (protein ABL2) is given as 280 nM and the Kd (protein CRK, all original PM interactions) is given as 2000 nM. The Kd (protein CRKL, all original PM interactions) was 2000 nM, the Kd (protein NCK2, all original PM interactions) was 2000 nM and the Kd (protein PIK3R2-N, all original PM interactions) was 2000 nM. The Kd (protein PIK3R3-NC, all original PM interactions) was 2000 nM, the Kd (protein PLCG1-C, all original PM interactions) was 2000 nM and the Kd (protein PLCG1-NC, all original PM interactions) was 2000 nM. The Kd (protein PTPN11-N, all original PM interactions) was 2000 nM, the Kd (protein RASA1-N, all original PM interactions) was 2000 nM and the Kd (protein RASA1-N) was 980 nM. For the same substance, the Kd (protein SLA, all original PM interactions) was 2000 nM, the Kd (protein SYK-NC, all original PM interactions) was 2000 nM and the Kd (protein VAV1, all original PM interactions) was 2000 nM. For the same substance, the Kd (protein VAV2, all original PM interactions) was 2000 nM, the Kd (protein VAV2) was 100 nM and the Kd (protein VAV3, all original PM interactions) was 2000 nM.
